Structures can show the parent of a compound that is named as a salt.

The target of this assay is T1, BACE-2 (Homo sapiens, UniProt Q9Y5Z0).
T1 construct: Recombinant BACE-2 (extracellular domain, expressed in baculovirus and purified using standard methods); made in house
T1 sequence (Q9Y5Z0 63-473 limits assumed): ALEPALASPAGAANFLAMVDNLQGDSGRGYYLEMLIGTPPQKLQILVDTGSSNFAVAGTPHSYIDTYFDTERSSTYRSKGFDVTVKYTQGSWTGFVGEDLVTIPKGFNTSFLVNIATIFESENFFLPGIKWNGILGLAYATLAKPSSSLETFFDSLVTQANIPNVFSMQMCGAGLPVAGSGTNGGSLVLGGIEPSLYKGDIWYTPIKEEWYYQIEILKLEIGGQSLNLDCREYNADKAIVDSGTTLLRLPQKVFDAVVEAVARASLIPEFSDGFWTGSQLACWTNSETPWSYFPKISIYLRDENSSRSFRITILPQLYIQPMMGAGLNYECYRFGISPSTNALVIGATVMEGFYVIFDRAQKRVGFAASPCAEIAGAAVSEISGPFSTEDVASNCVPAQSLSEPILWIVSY
As to the kind of experiment: assay for inhibition of BACE-2. The assay is classed as biochemical.
With `Cc1cc(OC(F)F)cnc1C(=O)Nc1ccc(F)c(C2(C)COC(CF)(CF)C(N)=N2)c1` (stereo not shown) [Example 253, 5-Difluoromethoxy-3-methyl-pyridine-2-carboxylic acid [3-(5-amino-6,6-bis-fluoromethyl-3-methyl-3,6-dihydro-2H-[1,4]oxazin-3-yl)-4-fluoro-phenyl]-amide], the IC50 – broadly, the concentration that inhibits the measured activity by half – worked out at 426 nM. The compound `COCCOc1cnc(C(=O)Nc2cccc(C3(C(F)F)COCC(N)=N3)c2)cn1` (stereo not shown) [Example 109] gave an IC50 greater than 10000 nM. Compound `C[C@H]1OC[C@](c2cc(NC(=O)c3ccc(Br)cn3)ccc2F)(C(F)F)N=C1N` (relative stereo) [Example 77, 5-Bromo-pyridine-2-carboxylic acid [3-((3R*,6R*)-5-amino-3-difluoromethyl-6-methyl-3,6-dihydro-2H-[1,4]oxazin-3-yl)-4-fluoro-phenyl]-amide hydrochloride] yielded an IC50 of 42 nM. In the case of `Cc1cc(OC(F)F)cnc1C(=O)Nc1ccc(F)c([C@]2(C)CO[C@@](C)(C(F)(F)F)C(N)=N2)c1` [Example 238] it was 12 nM; in that of `NC1=NC(CF)(c2cccc(NC(=O)c3ccc(Br)cn3)c2)COC1` (stereo not shown) [Example 31, 5-Bromo-pyridine-2-carboxylic acid [3-(5-amino-3-fluoromethyl-3,6-dihydro-2H-[1,4]oxazin-3-yl)-phenyl]-amide], 130 nM. To `Cc1cc(Br)cnc1C(=O)Nc1cccc([C@]2(C)COCC(=N)N2)c1` [Example 29, 5-Bromo-3-methyl-pyridine-2-carboxylic acid [3-((R)-5-amino-3-methyl-3,6-dihydro-2H-[1,4]oxazin-3-yl)-phenyl]-amide hydrochloride] belongs 21 nM. `CC1(c2cccc(NC(=O)C3CCC(F)(F)CC3)c2)COCC(N)=N1` (stereo not shown) [Example 26, 4,4-Difluoro-cyclohexanecarboxylic acid [3-(5-amino-3-methyl-3,6-dihydro-2H-[1,4]oxazin-3-yl)-phenyl]-amide hydrochloride] yielded an IC50 greater than 10000 nM.

Turning to `C[C@@]1(c2cc(NC(=O)c3ncc(C(F)F)nc3N)ccc2F)CO[C@@](C)(C(F)(F)F)C(N)=N1` [Example 242, 3-Amino-5-difluoromethyl-pyrazine-2-carboxylic acid [3-((3R,6R)-5-amino-3,6-dimethyl-6-trifluoromethyl-3,6-dihydro-2H-[1,4]oxazin-3-yl)-4-fluoro-phenyl]-amide], the midpoint of inhibition, the IC50, lay at 11 nM. That is a double-digit nanomolar value. `C#CCOc1cnc(C(=O)Nc2ccc(F)c([C@]3(C(F)F)COCC(N)=N3)c2)cn1` [Example 167, 5-Prop-2-ynyloxy-pyrazine-2-carboxylic acid [3-((R)-5-amino-3-difluoromethyl-3,6-dihydro-2H-[1,4]oxazin-3-yl)-4-fluoro-phenyl]-amide hydrochloride] showed a concentration for half-maximal inhibition (IC50) of 172 nM. `Cc1cc(C(F)F)cnc1C(=O)Nc1ccc(F)c([C@]2(C(F)F)COCC(N)=N2)c1` [Example 222] registered an IC50 of 52 nM. For `Cc1c(C(=O)Nc2ccc(F)c([C@]3(C(F)F)COCC(N)=N3)c2)oc2ccc(CN(C)C)cc12` [Example 172, 5-Dimethylaminomethyl-3-methyl-benzofuran-2-carboxylic acid [3-((R)-5-amino-3-difluoromethyl-3,6-dihydro-2H-[1,4]oxazin-3-yl)-4-fluoro-phenyl]-amide hydrochloride], the midpoint of inhibition, the IC50, lay at 7 nM. The compound `NC1=NC(c2cc(NC(=O)c3ccc(Br)cn3)ccc2F)(C(F)F)CNC1` (stereo not shown) [Example 201, 5-Bromo-pyridine-2-carboxylic acid [3-(6-amino-2-difluoromethyl-2,3,4,5-tetrahydro-pyrazin-2-yl)-4-fluoro-phenyl]-amide] yielded an IC50 of 24 nM. In the case of `Cc1nc(C(=O)Nc2cccc(C3(C)COCC(N)=N3)c2)cs1` (stereo not shown) [Example 11, 2-Methyl-thiazole-4-carboxylic acid [3-(5-amino-3-methyl-3,6-dihydro-2H-[1,4]oxazin-3-yl)-phenyl]-amide hydrochloride] it was 1060 nM.
